Measured values published in US20260176260A1, “DUAL RAF AND TUBULIN INHIBITORS AND METHODS OF USE THEREOF” (Deciphera Pharmaceuticals, LLC, priority 2023, published 2026).

Experiments:
[1] = target: T1, B-Raf kinase (Homo sapiens, UniProt P15056); experiment: Biochemical assay for B-Raf (coupled pyruvate kinase/lactate dehydrogenase); conditions: Table 1, inhibition of biochemical activity; read-out: BRAF
T1 construct: purchased Sigma

[2] = target: T2, C-Raf kinase (Homo sapiens, UniProt P04049, Y340D/Y341D); experiment: Biochemical assay for C-Raf (coupled pyruvate kinase/lactate dehydrogenase); conditions: Table 1, inhibition of biochemical activity; read-out: CRAF
T2 construct: C-Raf residues 306-end; Y340D, Y341D with N-; purchased Sigma
T2 sequence (P04049 307-648 Y340D/Y341D): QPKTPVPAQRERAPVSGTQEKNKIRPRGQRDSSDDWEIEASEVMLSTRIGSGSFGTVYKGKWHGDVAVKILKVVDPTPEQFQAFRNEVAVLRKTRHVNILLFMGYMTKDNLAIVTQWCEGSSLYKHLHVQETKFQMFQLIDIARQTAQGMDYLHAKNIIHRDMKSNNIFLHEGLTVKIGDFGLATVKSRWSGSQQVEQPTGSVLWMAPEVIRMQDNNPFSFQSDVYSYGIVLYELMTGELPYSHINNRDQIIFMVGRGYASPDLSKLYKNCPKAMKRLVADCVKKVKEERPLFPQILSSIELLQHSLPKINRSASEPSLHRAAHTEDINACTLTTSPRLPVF

[3] = system: MiaPaca-2 cells; experiment: MiaPaca-2 cell proliferation assay (resazurin); format: cell-based; conditions: Homo sapiens, MIA PaCa-2; Table 2, inhibition of cell proliferation; read-out: MiaPaca-2
Description: MiaPaca-2 cells (catalog #CRL-1420) are obtained from the American Type Culture Collect (ATTC, Manassas, VA). Briefly, cells were grown in DMVEM supplemented with […] fetal bovine serum (Invitrogen, Carlsbad, CA), 2.5% New Zealand sourced horse serum and 1% Penicillin/Streptomycin/L-Glutamine at 37° C., […], and […]. Cells are expanded until reaching […] at which point they are sub-cultured or harvested for assay use. For assays completed in 96-well plates, a serial dilution of test compound is dispensed into a 96-well black clear bottom plate in triplicate. Three thousand cells are added per well in 200 μL complete growth medium in the 96-well plate. Plates are incubated for 67 to 72 h at 37° C., 5% CO2, and 95% humidity. At the end of the incubation, 40 μL of a […] solution of resazurin (Sigma, St. Louis, MO) in PBS is added to each well of the plate and plates are incubated for an additional 5 to 6 h at 37° C., 5% CO2, and 95% humidity. For 384-well assays, a threefold, 8-point serial dilution of compound was spotted column wise into a 384 well black, clear bottom, tissue culture treated plate using the Beckman Coulter Echo 650. Likewise, a threefold, 8-point serial dilution of cobimetinib was spotted row wise into the 384 well black, clear bottom plate containing compound. DMSO concentration was constant across all wells at 0.4%. Seven hundred fifty cells are added per well in 50 μL complete growth medium in each 384-well plate. Plates are incubated for 67 to 72 h at 37° C., 5% CO2, and 95% humidity. At the end of the incubation, 10 μL of a 440 μM solution of resazurin (Sigma, St. Louis, MO) in PBS is added to each well of the plate and plates are incubated for an additional 4 to 6 h at 37° C., 5% CO2, and 95% humidity. Plates are read on a Synergy2 or equivalent reader (Biotek, Winooski VT) using an excitation of 540 nm and an emission of 600 nm. Data is analyzed using Prism software (Graphpad, San Diego, CA) to calculate IC50 values.

[4] = system: HCT-116 cells; experiment: HCT-116 cell proliferation assay (resazurin); format: cell-based; conditions: Homo sapiens; Table 2, inhibition of cell proliferation; read-out: HCT-116
Description: HCT-116 cells (catalog #CCL-247) are obtained from the American Type Culture Collect (ATCC, Manassas, VA). Briefly, cells are grown in McCoy's 5A supplemented with 10% characterized fetal bovine serum (Invitrogen, Carlsbad, CA) and 1% Penicillin/Streptomycin/L-Glutamine at 37° C., 5% CO2, and 95% humidity. Cells are expanded until reaching 70-95% confluency at which point they are sub-cultured or harvested for assay use. A serial dilution of test compound is dispensed into a 384-well black clear bottom plate in triplicate. 375 cells are added per well in 50 μL complete growth medium in the 384-well plate. Plates are incubated for 67 to 72 h at 37° C., 5% CO2, and 95% humidity. At the end of the incubation, 40 μL of a […] solution of resazurin (Sigma, St. Louis, MO) in PBS is added to each well of the plate and plates are incubated for an additional 4 to 5 h at 37° C., 5% CO2, and 95% humidity. Plates are read on a Synergy2 or equivalent reader (Biotek, Winooski, VT) using an excitation of 540 nm and an emission of 600 nm. Data is analyzed using Prism software (Graphpad, San Diego, CA) to calculate IC50 values.

[5] = system: HPAF-II cells; experiment: HPAF-II cell proliferation assay (resazurin); format: cell-based; conditions: Homo sapiens; Table 2, inhibition of cell proliferation; read-out: HPAF-II
Description: (§1) HPAF-II cells (catalog #CRL-1997) are obtained from the American Type Culture Collect (ATCC, Manassas, VA). Briefly, cells are grown in Minimum Essential Media supplemented with 10% characterized fetal bovine serum (Invitrogen, Carlsbad, CA) and 1% Penicillin/Streptomycin/L-Glutamine at 37° C., 5% CO2, and 95% humidity. Cells are expanded until reaching 70-95% confluency at which point they are sub-cultured or harvested for assay use. A serial dilution of test compound is dispensed into a 384-well black clear bottom plate in triplicate. 750 cells are added per well in 50 μL complete growth medium in the 384-well plate. Plates are incubated for 115 to 120 h at 37° C., 5% CO2, and 95% humidity. At the end of the incubation, 40 μL of a […] solution of resazurin (Sigma, St. Louis, MO) in PBS is added to each well of the plate and plates are incubated for an additional 18 to 24 h at 37° C., 5% CO2, and 95% humidity. Plates are read on a Synergy2 or equivalent reader (Biotek, Winooski, VT) using an excitation of 540 nm and an emission of 600 nm. Data is analyzed using Prism software (Graphpad, San Diego, CA) to calculate IC50 values.

[6] = system: Pa16c cells; experiment: Pa16c cell proliferation assay (resazurin); format: cell-based; conditions: Table 2, inhibition of cell proliferation
Description: as §1, with “Pa16c” for “HPAF-II”, “cells” for “cells (catalog #CRL-1997)”, “Dr. Channing Der, University of North Carolina at Chapel Hill.” for “the American Type Culture Collect (ATCC, Manassas, VA).”, “Dulbecco's Modified Eagle Medium” for “Minimum Essential Media”, “67” for “115”, “72” for “120”

T1 sequence (P15056 416-766): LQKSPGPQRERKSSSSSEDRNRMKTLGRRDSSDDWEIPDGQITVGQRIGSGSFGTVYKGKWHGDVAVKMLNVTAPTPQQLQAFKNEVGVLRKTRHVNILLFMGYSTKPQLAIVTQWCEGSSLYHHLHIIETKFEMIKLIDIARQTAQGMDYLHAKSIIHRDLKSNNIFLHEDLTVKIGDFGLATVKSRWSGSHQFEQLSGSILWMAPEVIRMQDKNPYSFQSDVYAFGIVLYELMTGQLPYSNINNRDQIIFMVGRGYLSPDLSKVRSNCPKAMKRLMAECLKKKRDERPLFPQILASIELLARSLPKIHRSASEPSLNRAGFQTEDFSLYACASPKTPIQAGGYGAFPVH

| IC50 [1] [µM] | IC50 [2] [µM] | IC50 [3] [µM] | IC50 [4] [µM] | SMILES | IC50 [5] [µM] | IC50 [6] [µM] |
| --- | --- | --- | --- | --- | --- | --- |
| < 0.1 | < 0.1 | < 0.1 | < 0.1 | CNC(=O)c1cc(-c2cc(-c3cc(NC(=O)c4cc(C(C)(F)F)cnn4)ccc3C)cc(NCCO)n2)ccn1 [Example 42] | 0.1 to 0.5 | 0.1 to 0.5 |
| < 0.1 | < 0.1 | 0.1 to 0.5 | 0.1 to 0.5 | CNC(=O)c1cc(-c2cc(-c3cc(NC(=O)c4cc(C(F)(F)F)cnn4)ccc3C)nc(NCCO)n2)ccn1 [Example 19] | 0.1 to 0.5 | 0.5 to 1 |
| < 0.1 | < 0.1 | 0.1 to 0.5 | 0.1 to 0.5 | CNC(=O)c1cc(-c2cc(-c3cc(NC(=O)c4cc(C(F)(F)F)cnn4)ccc3C)cc(OCCO)n2)ccn1 [Example 35] | 0.1 to 0.5 | 0.1 to 0.5 |
| < 0.1 | < 0.1 | 1 to 10 | 1 to 10 | CNC(=O)c1cc(-c2nc(N[C@H](C)CO)cc(-c3cc(NC(=O)c4cc(C(F)(F)F)cnn4)ccc3C)n2)ccn1 [Example 28] | 1 to 10 | 1 to 10 |
| 0.1 to 0.5 | < 0.1 | 1 to 10 | 1 to 10 | CNC(=O)c1cc(-c2cc(NCCO)nc(-c3cc(NC(=O)c4cc(C(F)(F)F)cnn4)ccc3C)n2)ccn1 [Example 33] | 1 to 10 | 1 to 10 |
| < 0.1 | < 0.1 | 0.1 to 0.5 | 0.1 to 0.5 | CNC(=O)c1cc(-c2cc(-c3cc(NC(=O)c4cc(C(F)(F)F)cnn4)ccc3C)nc(N[C@H](C)CO)n2)ccn1 [Example 25] | 0.1 to 0.5 | 1 to 10 |
| < 0.1 | < 0.1 | 1 to 10 | 1 to 10 | CNC(=O)c1cc(-c2nc(NCCO)cc(-c3cc(NC(=O)c4cc(C5CC5)cnn4)ccc3C)n2)ccn1 [Example 22] | 1 to 10 | 1 to 10 |
| < 0.1 | < 0.1 | 0.5 to 1 | 0.1 to 0.5 | CNC(=O)c1cc(-c2cc(-c3cc(NC(=O)c4cc(C(C)(F)F)cnn4)ccc3C)cc(OCCO)n2)ccn1 [Example 43] | 0.1 to 0.5 | 0.1 to 0.5 |

Second part, the molecule before the results:

| SMILES | IC50 [1] [µM] | IC50 [2] [µM] | IC50 [3] [µM] | IC50 [4] [µM] | IC50 [5] [µM] | IC50 [6] [µM] |
| --- | --- | --- | --- | --- | --- | --- |
| CNC(=O)c1cc(-c2cc(-c3cc(NC(=O)c4ccc(C(F)(F)F)nc4)ccc3C)cc(N[C@H](C)CO)n2)ccn1 [Example 44] | 0.1 to 0.5 | 0.1 to 0.5 | 1 to 10 | 1 to 10 | 1 to 10 | 1 to 10 |
| CNC(=O)c1cc(-c2cc(-c3cc(NC(=O)c4cc(C5CC5)cnn4)ccc3C)nc(NCCO)n2)ccn1 [Example 8] | < 0.1 | < 0.1 | 0.5 to 1 | 0.1 to 0.5 | 1 to 10 | 1 to 10 |
| CNC(=O)c1cc(-c2cc(-c3cc(NC(=O)c4cc(Cl)cnn4)ccc3C)ccn2)ccn1 [Example 36] | 0.1 to 0.5 | < 0.1 | 0.5 to 1 | 0.5 to 1 | 1 to 10 | 1 to 10 |
| CNC(=O)c1cc(-c2cncc(-c3cc(NC(=O)c4cc(C(C)(F)F)cnn4)ccc3C)c2)ccn1 [Example 30] | < 0.1 | < 0.1 | 1 to 10 | 0.5 to 1 | 1 to 10 | 1 to 10 |
| CNC(=O)c1cc(-c2cc(-c3cc(NC(=O)c4cc(C5CC5)cnn4)ccc3C)cc(N[C@H](C)CO)n2)ccn1 [Example 32] | < 0.1 | < 0.1 | 0.1 to 0.5 | 0.1 to 0.5 | 0.1 to 0.5 | 0.1 to 0.5 |
| Cc1cc(-c2cc(NC(=O)c3cc(C(F)(F)F)cnn3)ccc2C)cc(-c2ccnc(C(N)=O)c2)n1 [Example 7] | 0.1 to 0.5 | < 0.1 | 0.1 to 0.5 | 0.1 to 0.5 | 0.1 to 0.5 | 0.1 to 0.5 |
| CNC(=O)c1cc(-c2cncc(-c3cc(NC(=O)c4cc(C5CC5)cnn4)ccc3C)c2)ncn1 [Example 24] | < 0.1 | < 0.1 | 1 to 10 | 1 to 10 | 1 to 10 | 1 to 10 |
| CNC(=O)c1cc(-c2cc(-c3cc(NC(=O)c4cnc(C(F)(F)F)nc4)ccc3C)ccn2)ccn1 [Example 41] | 1 to 10 | 1 to 10 | 0.5 to 1 | 0.1 to 0.5 | 0.1 to 0.5 | 0.1 to 0.5 |
| CNC(=O)c1cc(-c2cc(-c3cc(NC(=O)c4cncc(C(F)(F)F)c4)ccc3C)cc(C)n2)ccn1 [Example 13] | 0.1 to 0.5 | < 0.1 | 1 to 10 | 1 to 10 | 1 to 10 | 1 to 10 |
| CNC(=O)c1cc(-c2cncc(-c3cc(NC(=O)c4cc(C#N)cnn4)ccc3C)c2)ccn1 [Example 46] | 0.1 to 0.5 | 0.1 to 0.5 | 1 to 10 | 0.5 to 1 | 1 to 10 | 1 to 10 |
| CNC(=O)c1cc(-c2cc(-c3cc(NC(=O)c4cc(C#N)cnn4)ccc3C)cc(OCCO)n2)ccn1 [Example 49] | < 0.1 | < 0.1 | 0.5 to 1 | 0.5 to 1 | 0.5 to 1 | < 0.1 |
| CNC(=O)c1cc(-c2cc(-c3cc(NC(=O)c4cc(C(C)(F)F)cnn4)ccc3C)ccn2)ccn1 [Example 31] | < 0.1 | < 0.1 | 0.1 to 0.5 | 0.1 to 0.5 | 0.1 to 0.5 | 0.1 to 0.5 |
| CNC(=O)c1cc(-c2cc(-c3cc(NC(=N)c4cc(C5CC5)cnn4)ccc3C)ccn2)ccn1 [Example 21] | 0.5 to 1 | 0.1 to 0.5 | 1 to 10 | 1 to 10 | 1 to 10 | 1 to 10 |
